Reference: patent publication US9815854B2, “3-(3H-imidazo[4,5-B]pyridin-2-yl)-1H-pyrazolo[3,4-C]pyridine and therapeutic uses thereof” (Samumed, LLC, priority 2014, dated 2017)

Tests used:
[1] = system: primary human fibroblasts derived from IPF patients (LL29 cells); assay: Inhibition of the fibrotic process in TGF-β1-treated primary human fibroblasts from IPF patients (αSMA staining); format: cell-based; details: Fibroblast, 96 h, TGF-β1 20 ng/mL, 4 days, read-out: Inhibition of fibrosis EC50
From the text: The above synthesized compounds were screened using primary human fibroblasts (derived from IPF patients) treated with TGF-β1 to determine their ability to inhibit the fibrotic process.
Human Fibroblast Celt Culture: Primary human fibroblasts derived from IPF patients (LL29 cells) [^1Xiaoqiu Liu, et.al., “Fibrotic Luna Fibroblasts Show Blunted Inhibition by cAMP Due to Deficient cAMP Response Element-Binding Protein Phosphorylation”, Journal of Pharmacology and Experimental Therapeutics (2005), 315(2), 678-687; ^2Watts, K. L., et.al., “RhoA signaling modulates cyclin D1 expression in human lung fibroblasts; implications for idiopathic pulmonary fibrosis”, Respiratory Research (2006), 7(1), 88] were obtained from American Type Culture Collection (ATCC) and expanded in F12 medium supplemented with 15% Fetal Bovine Serum and Penicillin/Streptomycin.
Compound Screening: Each compound was dissolved in DMSO as a 10 mM stock and used to prepare compound source plates. Serial dilution (1:2, 11-point dose-response curves from 10 μM to […]) and compound transfer was performed using the ECHO 550 (Lahcyte, Sunnyvale, Calif.) into 384-well clear bottom assay plates (Greiner Bio-One) with appropriate DMSO backfill fhr a final DMSO concentration of 0.1%. LL29 cells were plated at 1,500 cells/well in 80 μl/well F12 medium supplemented with 1% Fetal Bovine Serum. One hour after addition of the cells. TGF-β1 (Peprotech; 20 ng/mL) was added to the plates to induce fibrosis (ref. 1 and 2 above), Wells treated with TGF-β1 and containing DMSO were used as controls. Cells were incubated at 37° C. and 5% CO2 for 4 days. Following incubation for 4 days, SYTOX green nucleic acid stain (Life Technologies [Thermo Fisher Scientific]) was added to the wells at a final concentration of 1 uM and incubated at room temperature for 30 min. Cells were then fixed using 4% formaldehyde (Electron Microscopy Sciences), washed 3 times with PBS followed by blocking and penneabilization using 3% Bovine Serum Albumin (BSA; Sigma) and 0.3% Triton X-100 (Sigma) in PBS. Cells were then stained with antibody specific to α-smooth muscle actin (αSMA; Abeam) (ref 1 and 2 above) in 3% Bovine Serum Albumin (BSA; Sigma) and 0.3% Triton X-100 (Sigma) in PBS, and incubated overnight at 4° C. Cells were then washed 3 times with PBS, followed by incubation with Alexa Flor-647 conjugated secondary antibody (Life Technologies [Thermo Fisher Scientific]) and DAPI at room temperature for 1 hour, Cells were then washed 3 times with PBS and plates were sealed for imaging. αSMA staining was imaged by excitation at 630 nm and emission at 665 nm and quantified using the Compartmental Analysis program on the CellInsight CX5 (Thermo Scientific). Dead or apoptotic cells were excluded from analysis based on positive SYTOX green staining. % of total cells positive for αSMA were counted in each well and normalized to the average of 11 wells treated with TGF-β1 on the same plate using Dotmatics' Studies Software. The normalized averages (fold change over untreated) of 3 replicate wells for each compound concentration were used to create dose-responses curves and EC50 values were calculated using non-linear regression curve fit in the Dotmatics' Studies Software. The EC50 values are reported.

[2] = system: Wnt activity (Sp5-Luc reporter, TCF/LEF binding sites) in SW480 colon carcinoma cells; assay: Sp5-Luc Wnt reporter gene screening assay in SW480 colon carcinoma cells; format: cell-based, human; details: Homo sapiens
From the text: The screening assay for Wnt activity is described as follows. Reporter cell lines can be generated by stably transducing cancer cell lines (e.g., colon cancer) or primary cells (e.g., IEC-6 intestinal cells) with a lentiviral construct that includes a Wnt-responsive promoter driving expression of the firefly luciferase gene.
SW480 colon carcinoma cells were transduced with a lentiviral vector expressing luciferase with a human Sp5 promoter consisting of a sequence of eight TCF/LEF binding sites. SW480 cells stably expressing the Sp5-Luc reporter gene and a hygromycin resistance gene were selected by treatment with 150 μg/ml of hygroinycin for 7 days. These stably transduced SW480 cells were expanded in cell culture and used for all further screening activities. For Sp5-Luc reporter gene assays, the cells were plated at 10,000 cells/well in 96-well plates with growth medium containing 10% fetal calf serum and incubated overnight at 37° C. and 5% CO2. Each compound was dissolved in DMSO as a 10 mM stock in standard j-vials and used to prepare compound source plates in dose-response format with 3-fold serial dilutions and a 10 mM top concentration. Compound transfer from serially diluted source plates to assay plates containing the cells was accomplished using a pintool (Multimek 96, Beckman equipped with V&P Scientific FP1S50H pins) based liquid handling protocol. This protocol used a slotted pin to transfer 50 nl of compound from a source plate well to an assay plate well containing 50 μl of cells in growth medium. […] Control wells received 50 nl of DMSO treatment for nommlization and calculating IC50 values. The treated cells were incubated at 37° C. and 5% CO2 for an additional forty-two hours. Following incubation, the growth medium was removed and 50 μl of BrightGlo luminescence reagent (Promega) was added to each well of the 96-well assay plates. The plates were placed on an orbital shaker for 5 min and then luminescence was quantified on the Victor3 (Perkin Elmer) plate reader. Readings were normalized to DMSO only treated cells, and normalized activities were utilized for IC50 calculations using the dose-response log (inhibitor) vs. response—variable slope (four parameters) nonlinear regression feature available in GraphPad Prism 5.0 or 6.0.

Row | SMILES | IC50 [2] [nM] | EC50 [1] [nM]
1 | O=C(Nc1cncc(-c2cc3c(-c4nc5c(-c6ccccn6)ccnc5[nH]4)n[nH]c3cn2)c1)c1ccccc1 [Compound 141, N-(5-(3-(7-(Pyridin-2-yl)-3H-imidazo[4,5-b]pyridin-2-yl)-1H-pyrazolo[3,4-c]pyridin-5-yl)pyridin-3-yl)benzamide] | > 10000 | ≥ 9990
2 | CCNCc1cncc(-c2cc3c(-c4nc5c(-c6ccccn6)ccnc5[nH]4)n[nH]c3cn2)c1 [Compound 136, N-((5-(3-(7-(Pyridin-2-yl)-3H-imidazo[4,5-b]pyridin-2-yl)-1H-pyrazolo[3,4-c]pyridin-5-yl)pyridin-3-yl)methyl)ethanamine] | 745 | ≤ 9
3 | CN1CCN(c2ccnc3[nH]c(-c4n[nH]c5cnc(-c6cncc(NC(=O)C7CCCC7)c6)cc45)nc23)CC1 [Compound 229, N-(5-(3-(7-(4-Methylpiperazin-1-yl)-3H-imidazo[4,5-b]pyridin-2-yl)-1H-pyrazolo[3,4-c]pyridin-5-yl)pyridin-3-yl)cyclopentanecarboxamide] | > 10000 | ≤ 9
4 | c1cncc(-c2cc3c(-c4nc5c(-c6cccnc6)ccnc5[nH]4)n[nH]c3cn2)c1 [Compound 82, 5-(Pyridin-3-7-(pyridin-3-yl)-3H-imidazo[4,5-b]pyridin-2-yl)-1H-pyrazolo[3,4-c]pyridine] | > 10000 | ≤ 9
5 | c1ccc(CNCc2cncc(-c3cc4c(-c5nc6c(-c7ccsc7)ccnc6[nH]5)n[nH]c4cn3)c2)cc1 [Compound 283, N-benzyl-1-(5-(3-(7-(thiophen-3-yl)-3H-imidazo[4,5-b]pyridin-2-yl)-1H-pyrazolopyridin-5-yl)pyridin-3-yl) methenamine] | 74.7 | > 10000
6 | CN(C)Cc1cncc(-c2cc3c(-c4nc5c(-c6cccc(F)c6)ccnc5[nH]4)n[nH]c3cn2)c1 [Compound 13, 1-(5-(3-(7-(3-Fluorophenyl)-3H-imidazo[4,5-b]pyridin-2-yl)-1H-pyrazolo[3,4-c]pyridin-5-yl)pyridin-3-yl)-N,N-dimethylmethanamine] | 290 | 745
7 | Fc1ccc(-c2ccnc3[nH]c(-c4n[nH]c5cnc(-c6cncnc6)cc45)nc23)cc1 [Compound 52, 3-(7-(4-Fluorophenyl)-3H-imidazo[4,5-b]pyridin-2-yl)-5-(pyrimidin-5-yl)-1H-pyrazolo[3,4-c]pyridine] | 65.3 | 259
8 | Cc1ncc(-c2cc3c(-c4nc5c(-c6cccc(F)c6)ccnc5[nH]4)n[nH]c3cn2)n1C [Compound 941] | > 10000 | 1000
9 | CC(C)C(=O)Nc1cncc(-c2cc3c(-c4nc5c(N6CCN(C)CC6)ccnc5[nH]4)n[nH]c3cn2)c1 [Compound 217, N-(5-(3-(7-(4-Methylpiperazin-1-yl)-3H-imidazo[4,5-b]pyridin-2-yl)1H-pyrazolo[3,4-c]pyridin-5-yl)pyridin-3-yl)isobutyramide] | > 10000 | ≥ 9990
10 | Fc1ccc(-c2ccnc3[nH]c(-c4n[nH]c5cnc(-c6cncc(CN7CCCC7)c6)cc45)nc23)cc1 [Compound 40, 3-(7-(4-Fluorophenyl)-3H-imidazo[4,5-b]pyridin-2-yl)-5-(5-(pyrrolidn-1-ylmethyl)pyridin-3-yl)-1H-pyrazolo[3,4-c]pyridine] | 321 | 348
11 | CC(C)C(=O)Nc1cncc(-c2cc3c(-c4nc5c(-c6cccnc6)ccnc5[nH]4)n[nH]c3cn2)c1 [Compound 87, N-(5-(3-(7-(Pyridin-3-yl)-3 H-imidazo[4,5-b]pyridin-2-yl)-1H-pyrazolo[3,4-c]pyridin-5-yl)pyridin-3-yl)isobutyramide] | > 10000 | ≥ 9990
12 | CCCC(=O)Nc1cncc(-c2cc3c(-c4nc5c(-c6cc(F)cc(CNS(C)(=O)=O)c6)ccnc5[nH]4)n[nH]c3cn2)c1 [Compound 433, N-(5-(3-(7-(3-Fluoro-5-(methylsulfonamidomethyl)phenyl)-3H-imidazo[4,5-b]pyridin-2-yl)-1H-pyrazolo[3,4-c]pyridin-5-yl)pyridin-3-yl)butyramide] | > 10000 | ≥ 9990
13 | Cc1ccc(-c2ccnc3[nH]c(-c4n[nH]c5cnc(-c6cncc(NC(=O)C7CCCC7)c6)cc45)nc23)s1 [Compound 385] | 84.4 | 106
14 | CN(C)CCNc1cc(F)cc(-c2ccnc3[nH]c(-c4n[nH]c5cnc(-c6cncc(CNCC7CCCC7)c6)cc45)nc23)c1 [Compound 466, N^1-(3-(2-(5-(5-(((Cyclopentylmethyl)amino)methyl)pyridin-3-yl)-1H-pyrazolo[3,4-c]pyridin-3-yl)-3H-imidazo[4,5-b]pyridin-7-yl)-5-fluorophenyl)—N2,N2-dimethylethane-1,2-diamine] | 1740 | ≤ 9

Compounds with a lower IC50 [2], results first:

Row | IC50 [2] [nM] | SMILES | EC50 [1] [nM]
15 | 16.4 | Cc1ccc(-c2ccnc3[nH]c(-c4n[nH]c5cnc(-c6cncc(NC(=O)C(C)C)c6)cc45)nc23)s1 [Compound 373, N-(5-(3-(7-(5-Methylthiophen-2-yl)-3H-imidazo[4,5-b]pyridin-2-yl)-1H-pyrazolo[3,4-c]pyridin-5-yl)pyridin-3-yl)isobutyramide] | ≤ 9
16 | 24.8 | FC1(F)CCN(Cc2cncc(-c3cc4c(-c5nc6c(-c7cccs7)ccnc6[nH]5)n[nH]c4cn3)c2)C1 [Compound 337] | 114
17 | 26.8 | Nc1cncc(-c2cc3c(-c4nc5c(-c6ccccc6F)ccnc5[nH]4)n[nH]c3cn2)c1 [Compound 55, 5-(3-(7-(2-Fluorophenyl)-3H-imidazo[4,5-b]pyridin-2-yl)-1H-pyrazolo[3,4-c]pyridin-5-yl)pyridin-3-amine] | 20
18 | 24.9 | CCCC(=O)Nc1cncc(-c2cc3c(-c4nc5c(-c6ccsc6)ccnc5[nH]4)n[nH]c3cn2)c1 [Compound 277, N-(5-(3-(7-(Thiophen-3-yl)-3H-imidazo[4,5-b]pyridin-2-yl) 1H-pyrazolo[3,4-c]pyridin-5-yl)pyridin-3-yl)butyramide] | 158
19 | 36.9 | O=C(Nc1cncc(-c2cc3c(-c4nc5c(-c6ccccc6F)ccnc5[nH]4)n[nH]c3cn2)c1)C1CCCC1 [Compound 73, N-(5-(3-(7-(2-Fluorophenyl)-3H-imidazo[4,5-b]pyridin-2-yl)-1H-pyrazolo[3,4-c]pyridin-5-yl)pyridin-3-yl)cyclopentanecarboxamide] | 324
20 | 21.2 | CCCC(=O)Nc1cncc(-c2cc3c(-c4nc5c(-c6ccc(F)cc6)ccnc5[nH]4)n[nH]c3cn2)c1 [Compound 43, N-(5-(3-(7-(4-Fluorophenyl)-3H-imidazo[4,5-b]pyridin-2-yl)-1H-pyrazolo[3,4-c]pyridin-5-yl)pyridin-3-yl)butyramide] | 69
